In ChEMBL document CHEMBL1201862, “PubChem BioAssay data set” (2004):
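Interpolation was linear, between the two tested concentrations surrounding the appropriate level; five concentrations were tested over 48 hours in 96-well plates. GI50: concentration for 50% inhibition of growth.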 Active and inactive are the calls of the source. Rule as the data show it: active = GI50 up to about 1.1 µM and inactive = higher.

Legend:
Assay in all cases: DTP human tumour cell line panel, 48 h
[1] = system: SW-620
[2] = system: HL-60
[3] = system: TK-10
[4] = system: Hs-578T
[5] = system: UACC-62
[6] = system: HOP-62
[7] = system: UO-31
[8] = system: NCI-H23
[9] = system: Malme-3M
[10] = system: HCC 2998
[11] = system: SK-MEL-5
[12] = system: ACHN
[13] = system: RXF 393
[14] = system: RPMI-8226
[15] = system: SF-539
[16] = system: M14
[17] = system: HCT-15
[18] = system: NCI-H226
[19] = system: A498
[20] = system: SNB-75

Compound	GI50 [1]	GI50 [2]	GI50 [3]	GI50 [4]	GI50 [5]	GI50 [6]	GI50 [7]	GI50 [8]	GI50 [9]	GI50 [10]	GI50 [11]	GI50 [12]	GI50 [13]	GI50 [14]	GI50 [15]	GI50 [16]	GI50 [17]	GI50 [18]	GI50 [19]	GI50 [20]
O=C1c2c(O)ccc(O)c2C(=O)c2c(NCCNC(=O)C(O)C(O)C(O)C(O)CO)ccc(NCCNC(=O)C(O)C(O)C(O)C(O)CO)c21 (stereo not given)	0.0213 µM (active)	< 0.01 µM (active)	0.161 µM (active)	0.213 µM (active)	0.0154 µM (active)	0.011 µM (active)	0.0186 µM (active)	0.0178 µM (active)	0.212 µM (active)	0.135 µM (active)	0.016 µM (active)	< 0.01 µM (active)	0.221 µM (active)	< 0.01 µM (active)	< 0.01 µM (active)	< 0.0195 µM (active)	0.0138 µM	< 0.0126 µM (active)	0.149 µM (active)	0.0356 µM (active)
N#Cc1c(NC(=O)C(F)(F)F)sc2c3c(=O)c4ccccc4c(=O)c=3oc3ccccc3c12	25.1 µM (inactive)	4.46 µM (inactive)	33 µM (inactive)	2.49 µM (inactive)	7.55 µM (inactive)	20.5 µM (inactive)	19 µM (inactive)	9.84 µM (inactive)	1.1 µM (active)	13.9 µM (inactive)	11.3 µM (inactive)	21.1 µM (inactive)	10 µM (inactive)	12.7 µM (inactive)	7.24 µM (inactive)	21.7 µM (inactive)	13.1 µM	8.02 µM (inactive)	33.3 µM (inactive)	16.8 µM (inactive)
Sc1nc(S)nc(Oc2ccc(Cl)c(Cl)c2)n1	> 61.4 µM (inactive)	40 µM (inactive)	> 66.1 µM (inactive)	89.1 µM (inactive)	31.3 µM (inactive)	40 µM (inactive)	24.6 µM (inactive)	27.2 µM (inactive)	> 47.2 µM (inactive)	17.8 µM (inactive)	24.5 µM (inactive)	48.3 µM (inactive)	< 0.01 µM (active)	9.95 µM (inactive)	> 44.8 µM (inactive)	43.5 µM (inactive)	43.5 µM	38.1 µM (inactive)	24 µM (inactive)	30.3 µM (inactive)
COC(=O)/C=C\c1ccc2c(c1)CC1(C2)Cc2ccc(/C=C/C(=O)OC)cc2C1 (stereo not given)	> 100 µM (inactive)	> 31.6 µM (inactive)	> 31.6 µM (inactive)	> 31.6 µM (inactive)	> 31.6 µM (inactive)	15.2 µM (inactive)	> 31.6 µM (inactive)	> 31.6 µM (inactive)	29.4 µM (inactive)	> 31.6 µM (inactive)	> 31.6 µM (inactive)	> 31.6 µM (inactive)	> 31.6 µM (inactive)	> 31.6 µM (inactive)	30 µM (inactive)	> 31.6 µM (inactive)	> 31.6 µM	> 31.6 µM (inactive)	> 10 µM (inactive)	1.09 µM (active)
CC(=O)OC(OC(C)=O)c1ccc2ccc3cccc4ccc1c2c34	–	9.38 µM (inactive)	9.25 µM (inactive)	16.1 µM (inactive)	12.7 µM (inactive)	–	22.3 µM (inactive)	18.7 µM (inactive)	12.3 µM (inactive)	11.3 µM (inactive)	18.2 µM (inactive)	26.2 µM (inactive)	11.3 µM (inactive)	16.3 µM (inactive)	38.7 µM (inactive)	24.8 µM (inactive)	33.7 µM	3.08 µM (inactive)	1.48 µM (inactive)	15.7 µM (inactive)
CCCn1c(=O)c2ccccc2[n+]2c(-c3ccc([N+](=O)[O-])cc3)csc12	43.9 µM (inactive)	24.4 µM (inactive)	> 10 µM (inactive)	23.3 µM (inactive)	32.7 µM (inactive)	18.9 µM (inactive)	18.3 µM (inactive)	31 µM (inactive)	–	77.4 µM (inactive)	18.6 µM (inactive)	35.9 µM (inactive)	18.1 µM (inactive)	18 µM (inactive)	17.2 µM (inactive)	35.6 µM (inactive)	34.3 µM	29.4 µM (inactive)	25.2 µM (inactive)	21.7 µM (inactive)
CC1=C(C(=O)NCCc2ccccc2)CC(C(=O)NCCc2ccccc2)=C(C)N1	> 100 µM (inactive)	31.7 µM (inactive)	> 100 µM (inactive)	29.9 µM (inactive)	> 100 µM (inactive)	75.3 µM (inactive)	65.8 µM (inactive)	> 100 µM (inactive)	–	> 100 µM (inactive)	–	55.3 µM (inactive)	35.8 µM (inactive)	45.7 µM (inactive)	> 100 µM (inactive)	> 100 µM (inactive)	> 100 µM	> 100 µM (inactive)	33.2 µM (inactive)	14.3 µM (inactive)
